# Test results reported in publication PMC8778187, “A New Oxygen Containing Pyclen-Type Ligand as a Manganese(II) Binder for MRI and ^52Mn PET Applications: Equilibrium, Kinetic, Relaxometric, Structural and Radiochemical Studies” (Molecules, 2022).
# Where two headings read alike, the source gives them in different places. Marks after values point to notes of the source that are not given here.
# Assays:
# [1] = T = 25 °C, cited from earlier work; for log KMnL / pMn / log KMnHL: ref 16 (PC2A ligands), 12 (DO2A ligands); for log KMnL / pMn: 20 (H21,7-O2DO2A); for pMn: pMn = −log(Mn(II)free), cMn^2+ = cligand = 1 × 10^−5 M, pH = 7.4
# [2] = T = 25 °C, I = 0.15 M NaCl, ref 16 (PC2A ligands), 12 (DO2A ligands), cited from earlier work; for log K1^H / log K2^H / log K3^H / Σlog Κ2^H: 20 (H21,7-O2DO2A); for Σlog Κ2^H: log K1^H + log K2^H
# [3] = Mn(II) complex, 25 °C, pH = 7.4, cited from earlier work
# [4] = Ca^2+ complex, cited from earlier work
# [5] = Zn^2+ complex, T = 25 °C, I = 0.15 M NaCl, cited from earlier work; for log KMnL / log KMnHL: ref 16 (PC2A ligands), 12 (DO2A ligands)
# [6] = Cu^2+ complex, T = 25 °C, I = 0.15 M NaCl, cited from earlier work; for log KMnHL / log KMnL: ref 16 (PC2A ligands), 12 (DO2A ligands), 20 (H21,7-O2DO2A)
# [7] = Mg^2+ complex, cited from earlier work
# [8] = pH = 6.0, 25 equivalents of Zn(II), 37 °C, cited from earlier work
# [9] = cited from earlier work
# [10] = cited from earlier work; remark: listed apart in the source
# [11] = Metal challenge of 52Mn-labeled complexes (transmetalation); format: physicochemical; conditions: ZnCl2, CuCl2, MgCl2, CaCl2 mixture, room temperature, 7 days
# Procedure: Metal challenge of [[^52Mn]Mn(3,9-PC2A)] and [[^52Mn]Mn(3,9-OPC2A)]. 49 µL aqueous solution of each radiolabeled complex (~3.75 MBq) was incubated with a 1:1 mixture of 0.1 mM ZnCl2 and 0.01 mM CuCl2 (1 µL), and a 1:1 mixture of 1.02 mM MgCl2 and 2.28 mM CaCl2 (50 µL) at room temperature. Samples were taken from the mixtures at the beginning and after 1, 2, 3, and 20 h, and 2, 3, and 7 days later. For the analysis of the samples, the above-mentioned radio-TLC method was applied.
# [12] = Stability test of 52Mn-labeled complexes in rat serum (radio-TLC); format: in vitro ADME; conditions: room temperature, up to 7 days
# Procedure: Stability test of [[^52Mn]Mn(3,9-PC2A)] and [[^52Mn]Mn(3,9-OPC2A)] in rat serum. 100 µL aqueous solution of each radiolabeled complex (~7.5 MBq) was mixed with 100 uL of rat serum, and incubated at room temperature. Aliquots were taken and analyzed at the beginning and after 1, 2, 3, and 20 h, and 2, 3, and 7 days later, by the radio-TLC method, as explained mentioned above.
# [13] = EDTA challenge of 52Mn-labeled complexes (transchelation); format: physicochemical; conditions: 0.2 M H4EDTA (pH 7.4), room temperature, 7 days
# Procedure: EDTA challenge of [[^52Mn]Mn(3,9-PC2A)] and [[^52Mn]Mn(3,9-OPC2A)]. 50 µL aqueous solution of each radiolabeled complex (~3.75 MBq) was incubated with 50 µL of 0.2 M EDTA (pH 7.4) solution at room temperature. Aliquots were taken and analyzed by the radio-TLC method, as mentioned above, at the beginning and after 1, 2, 3, and 20 h, and 2, 3, and 7 days incubation time.
# [14] = Octanol/water partition coefficient (logP) of 52Mn-labeled complexes; format: physicochemical
# Procedure: Determination of logP values of the [[^52Mn]Mn(3,9-PC2A)] and [[^52Mn]Mn(3,9-OPC2A)] chelates. 100 µL aqueous solution of each radiolabeled complex (~7.5 MBq) was added to 100 µL of octanol. The mixture was shaken with a vortex shaker (5 min, 1000 rpm) and centrifuged (5 min, 10,000 rpm). A total of 3 × 20 µL from the octanol and 3 × 20 µL from the water were pipetted into test tube, respectively. The radioactivity of the samples was measured with a gamma detector.
# [15] = 0.49 T, ref 16 (PC2A ligands), 12 (DO2A ligands), 20 (H21,7-O2DO2A)
# [16] = T = 25 °C, I = 0.15 M NaCl, ref 16 (PC2A ligands), 12 (DO2A ligands), 20 (H21,7-O2DO2A)
# [17] = T = 25 °C, I = 0.15 M NaCl, ref 16 (PC2A ligands), 20 (H21,7-O2DO2A)
structure (smiles),measurement,setting,value
"O=C(O)CN1CCOCCN(CC(=O)O)CCOCC1 [H21,7-O2DO2A]",log KMnLOH,"[1]; Mn^2+ complex, I = 0.15 M NaCl",12.38
same,log KMnL,"[1]; Mn^2+ complex, I = 0.15 M NaCl",9.38
same,pMn,[1],6.67
same,log K1^H,[2],8.05
same,log K2^H,[2],7.43
same,log K3^H,[2],2.06
same,Σlog Κ2^H,[2],15.48
same,r1p,[3]; [15],2.86 mM⁻¹ s⁻¹
same,log KMnL,[4]; [16],6.96
same,log KMnLOH,"[5]; DO2A values carry footnote f, ref 12 (DO2A ligands), 20 (H21,7-O2DO2A)",11.40
same,log KMnL,"[5]; 20 (H21,7-O2DO2A)",10.55
same,log KMnLOH,[6],11.95
same,log KMnHL,[6],2.46
same,log KMnL,[6],14.56
same,log KMnL,[7]; [17],3.91
"O=C(O)CN1CCNCc2cccc(n2)CN(CC(=O)O)CC1 [H23,6-PC2A]",log KMnL,"[1]; Mn^2+ complex, I = 0.15 M NaCl",15.53
same,log KMnHL,"[1]; Mn^2+ complex, I = 0.15 M NaCl",3.06
same,pMn,[1],8.09
same,log K1^H,[2],10.72
same,log K2^H,[2],8.37
same,log K3^H,[2],3.81
same,log K4^H,[2],1.26
same,Σlog Κ2^H,[2],19.09
same,r2p,[3]; 0.49 T,3.49 mM⁻¹ s⁻¹
same,r1p,[3]; [15],2.72 mM⁻¹ s⁻¹
same,r1p,[3]; 1.41 T,2.40 mM⁻¹ s⁻¹
same,r2p,[3]; 1.41 T,4.20 mM⁻¹ s⁻¹
same,log KMnHL,"[4]; T = 25 °C, I = 0.15 M NaCl",5.27
same,log KMnL,[4]; [16],9.57
same,log KMnL,"[5]; 20 (H21,7-O2DO2A)",20.37
same,log KMnHL,[5],2.36
same,log KMnHL,[6],2.37 ^g
same,log KMnL,[6],24.09 ^g
same,log KMnHL,"[7]; T = 25 °C, I = 0.15 M NaCl",5.87
same,log KMnL,[7]; [17],8.11
"O=C(O)CN1CCNCCN(CC(=O)O)Cc2cccc(n2)C1 [H23,9-PC2A, pyclen-3,9-diacetate]",log KMnL,"[1]; Mn^2+ complex, I = 0.15 M NaCl",17.09
same,log KMnHL,"[1]; Mn^2+ complex, I = 0.15 M NaCl",2.14
same,pMn,[1],8.64
same,log K1^H,[2],12.25
same,log K2^H,[2],5.97
same,log K3^H,[2],3.47
same,log K4^H,[2],1.99
same,Σlog Κ2^H,[2],18.22
same,r2p,[3]; 0.49 T,3.96 mM⁻¹ s⁻¹
same,r1p,[3]; [15],2.91 mM⁻¹ s⁻¹
same,r1p,[3]; 1.41 T,2.24 mM⁻¹ s⁻¹
same,r2p,[3]; 1.41 T,4.82 mM⁻¹ s⁻¹
same,log KMnHL,"[4]; T = 25 °C, I = 0.15 M NaCl",5.08
same,log KMnL,[4]; [16],9.92
same,log KMnL,[4]; value in parenthesis,10.0
same,log KMnL,"[5]; 20 (H21,7-O2DO2A)",19.49
same,log KMnHL,[5],2.74
same,log KMnHL,[6],2.12 ^g
same,log KMnL,[6],23.58 ^g
same,log KMnHL,"[7]; T = 25 °C, I = 0.15 M NaCl",5.91
same,log KMnL,[7]; [17],9.84
same,log KMnL,[7]; value in parenthesis,8.4
"O=C([O-])CN1CCNCCN(CC(=O)[O-])Cc2cccc(n2)C1.[Mn+2] [[Mn(3,9-PC2A)]]",pMn,[1],8.64
same,kobs,[8]; previously reported,(3.28 ± 0.03) × 10^−4 s^−1
same,t1/2 (h) at pH = 7.4,"[9]; extrapolated to pH = 7.4, ref 16 (PC2A complexes), 12, 13, 20",21.0 h
same,k3,"[9]; metal assisted dissociation, T = 25 °C, I = 0.15 M NaCl",0.036 M⁻¹ s⁻¹
same,k1,"[9]; proton assisted dissociation, T = 25 °C, I = 0.15 M NaCl, ref 16 (PC2A complexes), 12, 13, 20",221 M⁻¹ s⁻¹
same,KMnL x H,"[9]; protonation constant of the complex from kinetic fit, T = 25 °C, I = 0.15 M NaCl",3.6 × 10^3
same,KML x Cu,"[9]; stability constant of dinuclear intermediate, T = 25 °C, I = 0.15 M NaCl, unit assumed",26 M⁻¹
same,r1^298_20 MHz,"[10]; 20 MHz, 298 K",2.91 mM⁻¹ s⁻¹
same,ΔH^‡,[10]; activation enthalpy of water exchange,37.5 kJmol^−1
same,q,"[10]; hydration number, fixed during the fitting procedure",1
same,kex^298,[10]; water exchange rate with bulk solvent,1.26e+08 s⁻¹
same,kex^298,[10]; water exchange rate,12.6 10^7s^−1
O=C([O-])CN(CC(=O)[O-])C1CCCCC1N(CC(=O)[O-])Cc1ccccn1.[Mn+2] (stereo not drawn) [[Mn(PyC3A)]],kobs,[8],(6.76 ± 0.04) × 10^−4 s^−1
"O=C([O-])CN1CCOCCN(CC(=O)[O-])Cc2cccc(n2)C1.[52Mn+2] [[[^52Mn]Mn(3,9-OPC2A)]]",complex dissociated in metal challenge,[11],about 30%
same,stability in rat serum,[12],remained intact even after seven days
same,transchelation in H4EDTA challenge,[13],slower and was not completed after seven days
same,logP,[14],−2.56
"O=C([O-])CN1CCNCCN(CC(=O)[O-])Cc2cccc(n2)C1.[52Mn+2] [[[^52Mn]Mn(3,9-PC2A)]]",inertness in metal challenge,[11],stayed intact
same,stability in rat serum,[12],remained intact even after seven days
same,transchelation in H4EDTA challenge,[13],transchelation was complete
same,logP,[14],−2.51
